Patent US20060057639A1, “CaMKII/calcium channel phosphorylation-related compositions and methods” (priority 2004, published 2006)

How the values were obtained:
[1] = biological target: T1, interaction of autophosphorylated CaMKII with α1C amino acids 1581-1690 (Rattus norvegicus, UniProt P11275); experiment: GST pull down of autophosphorylated α-CaMKII with α1C 1581-1690 fusion protein, peptide interference; type: binding; details: 40 μM peptide; 20 nM autophosphorylated α-CaMKII
T1 construct: made in house; host or cells: GST fusion from bacteria
Method: (B) Immunoblot with CBα2 after GST pull down of purified autophosphorylated α-CaMKII (20 nM), using α1C amino acids 1581-1690 fused to GST. Pull down assay performed in the presence of 40 μM of the indicated peptide or the peptide diluent DMSO. (C) Immunoblots with CBα2 or an anti-CaM antibody after a GST pull down assay, using α1C amino acids 1581-1690 (WT), a ^1644TVGKFY^1649→EEDAAA mutant (Mut6), or GST alone, of purified autophosphorylated CaMKII (left) or CaM (right). Top panels show a Ponceau stain of each fusion protein. […] Asterisk indicates p<0.001 for a one-way analysis of variance followed by a Dunnett's test to identify specific pair-wise differences between the means for Mut6 vs. wt and GST vs. wt, n=4-8. […] Top panels show a Ponceau stain of each fusion protein.
Peptides spanning α1C residues 1581-1690 have previously been described (Pitt et al., 2001). The NMDA-L peptide (Bayer et al., 2001), peptides AC-2 (Hanson et al., 1989), AC-3i (Braun and Schulman, 1995), and AC-3c (Braun and Schulman, 1995) have been described elsewhere.
The binding reactions were accomplished in Tris binding buffer (50 mM Tris, 150 mM NaCl, 0.1% T-20 at pH 7.4 ml plus 0.1% BSA) containing 20 nM purified CaMKII. The total protein from the HEK293 cell lysates added to each binding reaction ranged from 9-22 μg, determined by normalizing for the amount of CaMKII activity (Singla et al., 2001). Pre-autophosphorylayion of CaMKII (purified and lysate) was accomplished at 4° C. for 5 min in Tris binding buffer plus 1 mM CaCl2, 5 μM CaM, 1 mM ATP, and 5 mM MgCl2 to restrict the sites of autophosphorylation to primarily Thr286 (Ikeda et al., 1991; Lai et al., 1987; Lou and Schulman, 1989). Final concentration of these components in the binding reaction (1:40) was 0.025 mM CaCl2, 0.125 μM CaM, 0.025 mM ATP, and 0.125 mM MgCl2. The binding reaction was rocked for 1 h at 4° C. and the beads extensively washed in Tris binding buffer (2-3× for 5 mins each). […] CaMKII binding was quantified using densiotometric measurement of band intensity using KODAK 1D Image Analysis Software (Eastman Kodak, Company). […]

[2] = system: CaMKII; experiment: CaMKII dephosphorylation using PP1, autonomous activity measurement; type: biochemical; details: n=4
Method: Immunoblots with CBα2 or a phospho-specific CaMKII monoclonal antibody after GST pull down assays, using α1C amino acids 1509-1950 and 20 nM autophosphorylated α-CaMKII. (A) 5 mM EGTA was present in the binding reaction and/or in the wash; in (B), purified recombinant PP1 was added before (PP1-Pre) or after (PP1-Post) the binding reaction in the presence or absence of 5 mM EGTA, as indicated. (C) Time course of reversal of CaMKII autonomous activity following PP1 treatment in solution (n=4). (D) Activity measurements, using peptide AC-2 as a substrate, of CaMKII recovered in GST pull down assays, using α1C amino acids 1509-1950. Ca^2+/CaM-dependent and autonomous activity measurements of CaMKII recovered after treatment with recombinant PP1 for 30 min (PP1) or no treatment (−) in the binding assay (n=4). (E) Proposed mechanism of CaMKII binding to α1C to form a local and dedicated Ca^2+ spike integrator for CDF. […] Ca ^2+/CaM activation and Thr 286 autophosphorylation displace the CaMKII autoregulatory domain within the catalytic lobe to activate the subunit (yellow) and to expose an α1C tethering site. […] CaMKII may remain tethered to other cytoplasmic domains of α1C, as well. […]

[3] = biological target: cloned L-type channels (subunit α1C77) (Homo sapiens, UniProt Q13936); experiment: Check for use-dependence of diltiazem block of calcium currents supported by cloned L-type channels; type: cell-based; details: same solutions and voltage protocol as in granule cells; diltiazem 100 μM
Method: Dissociated cerebellar granule cells were prepared from 7-day old C57/BL6 mouse cerebella and grown in culture by a published protocol (Piedras-Renteria and Tsien, 1998; Randall and Tsien, 1995). The cerebellar granule cells were maintained in Minimal Essential Medium (Invitrogen) supplemented with 10% fetal bovine serum, glucose 5 mg/liter, transferrin 100 mg/liter, insulin 25 mg/liter, glutamine 300 mg/liter, and potassium chloride 20 mM. Cells were plated on Matrigel (Collaborative Biomedical Product) treated glass coverslips in 24-well chambers and maintained in a humidified, 37° C. incubator with […]/5% CO2. Cells were maintained for 6 to 9 days in culture prior to electrophysiological experiments. HEK293 cells stably transfected with the α2-δ and β1C subunits (HEKα2β1) were grown in Dulbecco's Modified Eagle's Medium containing 10% v/v calf serum, penicillin (100 units/ml), streptomycin (100 μg/ml), and kept under positive selection with Geneticin (400 μg/ml) while being maintained as described above. cDNAs encoding the α1C77 subunit (Zühlke and Reuter, 1998) and the green fluorescent protein were transiently transfected into HEKα2β1 cells by using the Lipofectamine2000 reagent (Invitrogen). Electrophysiological experiments were performed >24 hrs after transfection.

[4] = system: L-type Ca^2+ currents in cerebellar granule cells; experiment: Patch-clamp recording of Ca2+-dependent facilitation of L-type currents in cultured cerebellar granule cells; type: cell-based, mouse; details: 2 μM peptide in patch pipette; Ca^2+ as charge carrier; train of five pulses; without peptide facilitation averaged ~50%
Method: Dissociated cerebellar granule cells were prepared from 7-day old C57/BL6 mouse cerebella and grown in culture by a published protocol (Piedras-Renteria and Tsien, 1998; Randall and Tsien, 1995). The cerebellar granule cells were maintained in Minimal Essential Medium (Invitrogen) supplemented with 10% fetal bovine serum, glucose 5 mg/liter, transferrin 100 mg/liter, insulin 25 mg/liter, glutamine 300 mg/liter, and potassium chloride 20 mM. Cells were plated on Matrigel (Collaborative Biomedical Product) treated glass coverslips in 24-well chambers and maintained in a humidified, 37° C. incubator with […]/5% CO2. Cells were maintained for 6 to 9 days in culture prior to electrophysiological experiments. […]
Cerebellar granule cells, identified on the basis of morphology and size, comprised >90% of the cells in the primary culture. […] Voltage-gated Ca^2+ and Ba^2+ currents were recorded from cells depolarized to 0 mV with five 20 ms pulses (50 ms interpulse interval) from a −90 mV holding potential. […]

Sequence of CaMKII (P11275 whole entry, the tested form may be a part): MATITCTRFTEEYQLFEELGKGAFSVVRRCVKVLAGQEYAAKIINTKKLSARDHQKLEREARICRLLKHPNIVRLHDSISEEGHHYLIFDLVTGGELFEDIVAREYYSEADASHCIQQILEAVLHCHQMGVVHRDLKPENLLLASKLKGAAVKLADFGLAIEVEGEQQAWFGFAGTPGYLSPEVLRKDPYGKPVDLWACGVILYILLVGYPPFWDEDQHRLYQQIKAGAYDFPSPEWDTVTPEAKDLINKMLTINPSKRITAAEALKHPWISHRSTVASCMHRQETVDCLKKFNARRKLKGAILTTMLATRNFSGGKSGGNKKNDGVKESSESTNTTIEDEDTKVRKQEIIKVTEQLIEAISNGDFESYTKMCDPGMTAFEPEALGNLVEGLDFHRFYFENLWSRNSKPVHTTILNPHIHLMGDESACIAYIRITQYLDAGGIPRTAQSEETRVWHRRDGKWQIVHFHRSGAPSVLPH
Sequence of cloned L-type channels (subunit α1C77) (Q13936 1-2138 isoform Q13936-20): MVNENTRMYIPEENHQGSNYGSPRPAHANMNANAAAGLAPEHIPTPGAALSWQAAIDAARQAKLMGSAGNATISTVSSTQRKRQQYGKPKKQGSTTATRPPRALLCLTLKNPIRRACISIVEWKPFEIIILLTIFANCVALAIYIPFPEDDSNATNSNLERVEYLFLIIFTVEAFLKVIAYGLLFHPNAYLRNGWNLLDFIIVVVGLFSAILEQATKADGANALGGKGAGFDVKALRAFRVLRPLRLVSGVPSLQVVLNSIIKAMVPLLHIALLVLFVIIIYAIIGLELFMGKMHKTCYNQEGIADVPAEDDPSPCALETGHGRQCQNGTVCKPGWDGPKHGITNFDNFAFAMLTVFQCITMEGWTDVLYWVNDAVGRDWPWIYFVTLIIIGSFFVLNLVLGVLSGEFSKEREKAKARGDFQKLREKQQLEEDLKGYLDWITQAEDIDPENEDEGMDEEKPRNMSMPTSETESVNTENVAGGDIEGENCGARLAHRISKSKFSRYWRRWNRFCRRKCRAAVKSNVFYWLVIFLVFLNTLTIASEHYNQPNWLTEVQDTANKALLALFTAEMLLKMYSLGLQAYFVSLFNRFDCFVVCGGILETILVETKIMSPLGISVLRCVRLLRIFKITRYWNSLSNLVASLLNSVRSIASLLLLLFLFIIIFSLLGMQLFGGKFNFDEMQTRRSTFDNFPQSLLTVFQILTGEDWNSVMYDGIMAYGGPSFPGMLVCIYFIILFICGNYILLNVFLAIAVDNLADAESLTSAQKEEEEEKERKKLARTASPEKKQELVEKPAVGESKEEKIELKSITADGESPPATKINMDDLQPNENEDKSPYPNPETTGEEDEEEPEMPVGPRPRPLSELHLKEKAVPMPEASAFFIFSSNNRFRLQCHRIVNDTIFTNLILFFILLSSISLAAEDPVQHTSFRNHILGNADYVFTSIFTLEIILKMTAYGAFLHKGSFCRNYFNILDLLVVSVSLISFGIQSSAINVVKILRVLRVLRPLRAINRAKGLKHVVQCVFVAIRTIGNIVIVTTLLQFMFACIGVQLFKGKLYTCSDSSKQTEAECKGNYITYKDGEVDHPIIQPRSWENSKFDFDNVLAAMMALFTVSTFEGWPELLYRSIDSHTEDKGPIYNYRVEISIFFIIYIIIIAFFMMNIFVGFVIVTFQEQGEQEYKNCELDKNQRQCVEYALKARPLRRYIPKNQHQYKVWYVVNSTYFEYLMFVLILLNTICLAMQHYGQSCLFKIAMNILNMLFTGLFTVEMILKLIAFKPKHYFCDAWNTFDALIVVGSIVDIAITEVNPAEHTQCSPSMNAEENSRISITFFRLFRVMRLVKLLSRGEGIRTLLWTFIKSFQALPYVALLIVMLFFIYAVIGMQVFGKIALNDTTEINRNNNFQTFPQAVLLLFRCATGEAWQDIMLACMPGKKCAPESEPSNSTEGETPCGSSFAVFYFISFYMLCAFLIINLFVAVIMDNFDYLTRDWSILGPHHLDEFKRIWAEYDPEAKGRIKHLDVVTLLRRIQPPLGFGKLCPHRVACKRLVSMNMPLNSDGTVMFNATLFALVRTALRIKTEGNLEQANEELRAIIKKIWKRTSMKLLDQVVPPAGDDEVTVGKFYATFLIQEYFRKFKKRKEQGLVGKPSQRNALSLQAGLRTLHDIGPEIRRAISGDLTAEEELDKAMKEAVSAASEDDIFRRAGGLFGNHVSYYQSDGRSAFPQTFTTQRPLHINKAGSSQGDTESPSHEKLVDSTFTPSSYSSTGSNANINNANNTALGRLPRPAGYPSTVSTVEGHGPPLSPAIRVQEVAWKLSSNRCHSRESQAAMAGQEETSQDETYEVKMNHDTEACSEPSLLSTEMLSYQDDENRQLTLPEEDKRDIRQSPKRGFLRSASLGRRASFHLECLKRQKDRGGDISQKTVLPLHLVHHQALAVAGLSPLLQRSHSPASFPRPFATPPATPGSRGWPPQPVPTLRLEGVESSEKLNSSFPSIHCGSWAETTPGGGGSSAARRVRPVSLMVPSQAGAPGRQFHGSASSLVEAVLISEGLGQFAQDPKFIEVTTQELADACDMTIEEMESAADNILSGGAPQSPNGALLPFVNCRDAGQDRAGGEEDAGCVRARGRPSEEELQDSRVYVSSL
Sequence of cloned L-type channels (subunit α1C77) (P54289 25-956 partner limits assumed): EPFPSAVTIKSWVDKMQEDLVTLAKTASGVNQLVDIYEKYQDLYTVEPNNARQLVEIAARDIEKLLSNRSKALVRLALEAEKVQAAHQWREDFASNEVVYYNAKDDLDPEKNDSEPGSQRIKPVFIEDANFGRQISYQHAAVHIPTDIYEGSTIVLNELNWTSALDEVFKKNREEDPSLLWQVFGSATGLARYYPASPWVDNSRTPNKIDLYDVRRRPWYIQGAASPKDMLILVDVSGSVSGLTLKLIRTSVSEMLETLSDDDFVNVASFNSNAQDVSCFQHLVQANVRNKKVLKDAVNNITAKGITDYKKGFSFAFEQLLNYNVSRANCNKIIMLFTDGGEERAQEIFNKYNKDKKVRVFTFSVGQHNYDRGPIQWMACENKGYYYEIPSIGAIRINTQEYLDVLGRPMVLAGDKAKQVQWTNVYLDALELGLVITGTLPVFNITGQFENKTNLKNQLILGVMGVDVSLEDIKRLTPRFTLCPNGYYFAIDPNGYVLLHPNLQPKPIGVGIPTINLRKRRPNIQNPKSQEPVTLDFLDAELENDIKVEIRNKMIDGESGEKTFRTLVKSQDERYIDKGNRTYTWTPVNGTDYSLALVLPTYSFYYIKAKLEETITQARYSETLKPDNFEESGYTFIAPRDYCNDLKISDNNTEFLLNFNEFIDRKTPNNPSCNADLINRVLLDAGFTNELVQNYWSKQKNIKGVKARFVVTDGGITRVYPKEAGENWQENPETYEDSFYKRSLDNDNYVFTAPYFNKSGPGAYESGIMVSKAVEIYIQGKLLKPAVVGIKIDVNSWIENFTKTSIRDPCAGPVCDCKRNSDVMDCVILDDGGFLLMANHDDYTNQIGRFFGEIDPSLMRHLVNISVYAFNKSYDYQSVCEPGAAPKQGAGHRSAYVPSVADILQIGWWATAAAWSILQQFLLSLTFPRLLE
Sequence of cloned L-type channels (subunit α1C77) (P54289 957-1103 partner limits assumed): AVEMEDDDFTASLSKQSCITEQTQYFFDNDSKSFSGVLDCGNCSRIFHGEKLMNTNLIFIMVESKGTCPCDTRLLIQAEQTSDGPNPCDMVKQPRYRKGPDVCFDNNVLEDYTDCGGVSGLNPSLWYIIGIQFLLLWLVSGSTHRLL
Sequence of cloned L-type channels (subunit α1C77) (Q02641 whole entry partner): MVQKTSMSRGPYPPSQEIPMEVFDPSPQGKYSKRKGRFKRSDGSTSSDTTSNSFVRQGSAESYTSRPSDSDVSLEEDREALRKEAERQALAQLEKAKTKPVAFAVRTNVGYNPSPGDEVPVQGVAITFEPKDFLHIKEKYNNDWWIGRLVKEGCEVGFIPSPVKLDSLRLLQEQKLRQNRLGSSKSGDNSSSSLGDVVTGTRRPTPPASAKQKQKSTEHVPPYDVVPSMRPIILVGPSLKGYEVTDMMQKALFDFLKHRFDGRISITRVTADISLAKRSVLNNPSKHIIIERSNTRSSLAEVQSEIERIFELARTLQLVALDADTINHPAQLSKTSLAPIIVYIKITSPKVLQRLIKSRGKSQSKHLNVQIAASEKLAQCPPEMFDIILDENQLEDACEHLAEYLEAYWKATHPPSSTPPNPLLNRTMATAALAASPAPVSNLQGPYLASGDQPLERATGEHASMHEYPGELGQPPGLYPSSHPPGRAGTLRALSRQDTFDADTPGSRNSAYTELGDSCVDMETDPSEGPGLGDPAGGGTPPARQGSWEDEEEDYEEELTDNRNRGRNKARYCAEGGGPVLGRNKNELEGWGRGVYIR

Question: For “1615-1636: ~22 aa peptide of α1C residues 1615-1636, site important for tethering of apoCaM (RTALRIKTEGNLEQANEELRAI; UniProt Q13936 1615-1636, looked up, fragment)”, which “interaction of the kinase with the 1581-1690 fusion protein in presence of peptide” value (“interaction of the kinase” for short) [1] is on record?
Answer: The value was “not inhibited”.

Question: With “PP1: Hisx6-tagged protein phosphatase 1 catalytic subunit, purified recombinant” as the compound, how does the “remaining autonomous activity of α1C-bound CaMKII, % of that without PP1 treatment” value ([2]; PP1 for 30 min, peptide AC-2 as substrate) read?
Answer: The value was 1.2±0.6%.

Question: What about the “time to complete dephosphorylation (loss of autonomous activity) of soluble kinase” value ([2]; soluble CaMKII in solution) of the same compound?
Answer: The value was no more than 30 min.

Question: How did the “use-dependence of diltiazem block of calcium currents” value [3] turn out when `COc1ccc([C@@H]2Sc3ccccc3N(CCN(C)C)C(=O)[C@@H]2OC(C)=O)cc1` [diltiazem] was run?
Answer: The value was “none were found”.

Question: For “1639-1660: ~22 aa peptide generated from α1C residues 1639-1660 (Pitt et al., 2001) (KIWKRTSMKLLDQVVPPAGDDE; UniProt Q13936 1639-1660, looked up, fragment)”, which “interaction of the kinase” value [1] is on record?
Answer: Its value is “dramatically reduced”.

Question: For “1589-1610: ~22 aa peptide of α1C residues 1589-1610, site important for tethering of apoCaM (KRLVSMNMPLNSDGTVMFNATL; UniProt Q13936 1589-1610, looked up, fragment)”, which “interaction of the kinase” value [1] is on record?
Answer: Its value is “not inhibited”.

Question: How did the “decrease in peak L-type current over the course of the depolarizing pulse train” value [4] turn out when “autocamtide-2-related inhibitory peptide (KKALRRQEAVDAL)” was run?
Answer: The value was roughly 25%.
